According to patent publication US20080004329A1, “Pharmaceutical compositions of ropinirole and methods of use thereof” (priority 2006, published 2008):

Experiments:
[1] = test system: guinea pigs; assay: Skin sensitization, induction and challenge; format: in vivo; details: guinea pigs induced (with and without Freund's Complete Adjuvant) and challenged with 5% ropinirole HCl
[2] = water at 20° C.; cited from earlier work
[3] = In vitro permeation, Franz cells, cadaver skin finite dose technique (Example 1); format: in vitro ADME, human
Method: The in vitro human cadaver skin model has proven to be a valuable tool for the study of percutaneous absorption and the determination of topically applied drugs. The model uses human cadaver skin mounted in specially designed diffusion cells that allow the skin to be maintained at a temperature and humidity that match typical in vivo conditions (Franz, T. J., “Percutaneous absorption: on the relevance of in vitro data,” J. Invest Dermatol 64:190-195 (1975)). A finite dose (for example: 4-7 mg/cm^2) of formulation is applied to the outer surface of the skin and drug absorption is measured by monitoring its rate of appearance in the receptor solution bathing the inner surface of the skin. Data defining total absorption, rate of absorption, as well as skin content can be accurately determined in this model. The method has historic precedent for accurately predicting in vivo percutaneous absorption kinetics (Franz, T. J., “The finite dose technique as a valid in vitro model for the study of percutaneous absorption in man,” In: Skin: Drug Application and Evaluation of Environmental Hazards, Current Problems in Dermatology, vol. 7, G. Simon, Z. Paster, M Klingberg, M. Kaye (Eds), Basel, Switzerland, S. Karger, pages 58-68 (1978)).
Percutaneous absorption was measured using the in vitro cadaver skin finite dose technique. Cryo-preserved, human cadaver trunk skin was obtained from a skin bank and stored in water-impermeable plastic bags at <−70° C. until used.
Prior to the experiment, skin was removed from the bag, placed in approximately 37° C. water for five minutes, and then cut into sections large enough to fit on 1 cm^2 Franz Cells (Crown Glass Co., Somerville, N.J.). Briefly, skin samples were prepared as follows. A small volume of phosphate buffered saline (PBS) was used to cover the bottom of the Petri dishes. Skin disks generally depleted of fat layers were placed in the Petri dishes for hydration. A Stadie-Riggs manual tissue microtome was used for slicing excised skin samples. Approximately 2 mL of PBS was placed into the middle cavity of the microtome as slicing lubricant. Skin disks were placed, dermal side up, into the middle cavity of the microtome. Filter paper was soaked with PBS, inserted in the cavity just above the skin disk. The filter paper prevented the dermis from sliding onto the top of the cutting block and helped to insure more precise cutting. When all three blades of the microtome were assembled, the microtome was turned into the upright position. Using a regular and careful sawing motion the skin tissue was sliced in cross-section. The skin tissue slice was removed with the tweezers and placed in the Petri dish for hydration. Each skin slice was wrapped in Parafilm® (Pechiney Plastic Packaging, Inc., Chicago, Ill.) laboratory film and placed in water-impermeable plastic bags. Skin samples were identified by the donor and the provider code. If further storage was necessary, the skin slices were stored in the freezer at −20° C. until further use.
The epidermal cell (chimney) was left open to ambient laboratory conditions. The dermal cell was filled with receptor solution. Receptor solution for in vitro skin permeations was typically an isotonic saline at physiological pH. The receptor solution may also contain a drug solubilizer, for example, to increase lipophilic drug solubility in the receptor phase. […]

[4] = cited from earlier work
[5] = human
Method: In vitro data can be extrapolated to in vivo conditions in order to evaluate the gel dose for bioequivalence to ropinirole oral absorption. […] Therefore, an intermediate oral dose of 6 mg/day with BA=50% delivers a systemic dose of 3 mg/day. […] This corresponds to a daily dose of 9.5 mg ropinirole HCl (equivalent to 8.3 mg free base).
Based on these pharmacokinetic parameters, the daily input rate can be estimated using the following equation: Ka=CL×Cp, where Ka is the daily input rate (absorption rate), CL the drug plasma clearance, and Cp the plasma concentration.
Scaled to the clinical daily input rate, the required skin surface can be determined using the following equation: S=Ka/JSS, wherein S is the application skin surface area, and JSS is the in vitro steady-state drug flux.
Alternatively, the gel amount could be increased by 3.7 times (1 g instead of 0.3 g), and be applied to a 3.7 times larger skin area (185 cm instead of 50 cm^2).
This corresponds to a daily dose of 15 mg ropinirole HCl (equivalent to 13 mg free base).

[6] = Titration with NaOH for the experimental ionization profile in a hydroalcoholic base; format: physicochemical; details: hydroalcoholic vehicle (ethanol 45%, propylene glycol 20%, water 25.58%), not gellified; read-out: apparent pKa from the experimental ionization profile
From the text: The following formulation was used for titration to determine the experimental ionization profile of ropinirole in a hydroalcoholic base: Ropinirole hydrochloride* 3.42% w/w, myristyl alcohol 1.00% w/w, diethylene glycol monoethylether 5.00% w/w, propylene glycol 20.00% w/w, absolute ethanol 45.00% w/w, and purified water 25.58% w/w (total 100; * ropinirole HCl 3.42% (MW=296.84) corresponds to ropinirole free base 3% (MW=260.38), ratio 1.14). The formulation was not gellified.
The ropinirole HC1 solution was titrated with NaOH 0.1 M solution. The solvent was the same as the formulation, in order to keep a constant composition. NaOH was chosen so as to limit dilution of the titrated formulation; but no dilution correction was made. The formulation was titrated by 0.5-1 mL increments where the pH change was small. Increments were reduced to 0.1 mL near the equivalence point. The pH was monitored with a glass electrode (Mettler Toledo InLab 432, Mettler-Toledo, Inc., Columbus, Ohio), and recorded with a Mettler Toledo MP. 230 pH meter (Mettler-Toledo, Inc., Columbus, Ohio).
Based on the titration curve, the ionization rate [BH] was calculated according to Henderson-Hasselbalch equation for weak base: […]

[7] = EtOH(45)/Water(40)/PG(10), 5% drug

Structure (SMILES) | sensitization category [1] | solubility in water [2] [mg/mL] | skin permeation characteristics [3, 7] | peak flux ([3]; EtOH(45)/Water(40)/PG(10), 5% drug, pH 9.5-10.0) [μg/cm^2/hr] | ropinirole remained in the epidermis ([3]; after 48 hours) | Bioavailability in the receptor chamber fluid ([3]; percent dose recovered in receptor fluid) | Body clearance ([4]; REQUIP Prescribing Information) | maximum plasma levels (Cmax) ([4]; repeated oral administration, 6 mg/day in 3 divided doses, steady state (Taylor et al.)) [ng/mL] | Ka, daily input rate (absorption rate), Ka=CL×Cp [5] [µg/h] | pKa [6]
CCCN(CCC)CCc1cccc2c1CC(=O)N2.Cl [Ropinirole hydrochloride, 4-[2-(dipropylamino)-ethyl]-1,3-dihydro-2H-indol-2-one monohydrochloride] | mild sensitizer | 133 | did not permeate well |  |  |  |  |  |  | 
CCCN(CCC)CCc1cccc2c1CC(=O)N2 [ropinirole free base] |  |  | good permeation characteristics | 3.5 | Approximately 20% | about 40% |  |  |  | 
CCCN(CCC)CCc1cccc2c1CC(=O)N2 [ropinirole] |  |  |  |  |  |  | about 47 L/h | 7.4 | 347.8 | 8
